Assay results reported in patent US12264134B2 (Merck Sharp & Dohme LLC, priority 2018, dated 2025).

Columns and labels:
IDO1 [1] = target: T1, IDO1 (Homo sapiens, UniProt P14902); experiment: IDO1 Human Whole blood Assay; assay type: cell-based; set-up: Human whole blood was drawn in sodium heparin coated tubes from healthy internal donors; from tissue; host or cells: human whole blood from healthy donors, stimulated with LPS and IFNγ; conditions: LPS and IFNγ stimulated, 18 h, read-out: Human Whole Blood Potency, IC50
In short: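 LC/MS/MS of kynurenine, normalized to spiked isotope-labeled standard (3 μM final), served as the readout. Beforehand, fresh human blood with compound (15 min preincubation) was stimulated overnight (18 h, 37 °C) with 100 ng/mL LPS/IFNγ. IC50 was obtained by four-parameter curve fitting.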

IDO1 [2] = target: T1, IDO1; experiment: IDO1 Cellular Assay in HeLa Cells Stimulated with IFNγ; assay type: cell-based; conditions: read-out: HeLa Cell Potency, IC50

T1 sequence (P14902 whole entry): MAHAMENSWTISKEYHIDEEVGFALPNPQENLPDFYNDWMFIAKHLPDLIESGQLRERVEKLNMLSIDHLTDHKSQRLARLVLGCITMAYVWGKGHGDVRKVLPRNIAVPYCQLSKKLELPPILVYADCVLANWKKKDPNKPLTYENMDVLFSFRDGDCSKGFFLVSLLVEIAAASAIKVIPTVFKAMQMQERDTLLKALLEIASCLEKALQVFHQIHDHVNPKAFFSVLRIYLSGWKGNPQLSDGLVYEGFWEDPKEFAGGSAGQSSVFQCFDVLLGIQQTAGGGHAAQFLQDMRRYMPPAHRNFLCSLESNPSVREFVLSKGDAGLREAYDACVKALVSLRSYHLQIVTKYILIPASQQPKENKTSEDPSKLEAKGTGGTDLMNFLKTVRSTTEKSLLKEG

Compound	IC50 (IDO1 [1])	IC50 (IDO1 [2])
Cc1cccc(N2CCN(C(=O)Cn3nc(C(=O)N4CCC(F)(CO)CC4)c4c3CCC4)CC2)c1C [Example 293, 1-[4-(2,3-dimethylphenyl)piperazin-1-yl]-2-{3-[4-fluoro-4-(hydroxymethyl)piperidine-1-carbonyl]-5,6-dihydrocyclopenta[c]pyrazol-1(4H)-yl}ethan-1-one]	178 nM	5.46 nM
Cc1cccc(N2CCN(C(=O)Cn3nc(C(=O)N4CCC(O)(CN)CC4)c4c3C[C@H]3C[C@@H]43)CC2)c1C [Example 238, 2-{(3bR,4aR)-3-[4-(aminomethyl)-4-hydroxypiperidine-1-carbonyl]-3b,4,4a,5-tetrahydro-1H-cyclopropa[3,4]cyclopenta[1,2-c]pyrazol-1-yl}-1-[4-(2,3-dimethylphenyl)piperazin-1-yl]ethan-1-one]	5050 nM	8.43 nM
Cc1c(F)ccc(N2CCN(C(=O)Cn3nc(C(=O)N4CCN(C(=O)CO)CC4)c4c3C[C@H]3C[C@@H]43)C3(CC3)C2)c1C [Example 319, 1-[7-(4-fluoro-2,3-dimethylphenyl)-4,7-diazaspiro[2.5]octan-4-yl]-2-{(3bR,4aR)-3-[4-(hydroxyacetyl)piperazine-1-carbonyl]-3b,4,4a,5-tetrahydro-1H-cyclopropa[3,4]cyclopenta[1,2-c]pyrazol-1-yl}ethan-1-one]	452 nM	1.31 nM
Cc1c(Cl)cccc1N1CCN(C(=O)Cn2nc(C(=O)N3CCC(F)(CN)CC3)c3c2C[C@H]2C[C@@H]32)C2(CC2)C1 [Example 314, 2-{(3bR,4aR)-3-[4-(aminomethyl)-4-fluoropiperidine-1-carbonyl]-3b,4,4a,5-tetrahydro-1H-cyclopropa[3,4]cyclopenta[1,2-c]pyrazol-1-yl}-1-[7-(3-chloro-2-methylphenyl)-4,7-diazaspiro[2.5]octan-4-yl]ethan-1-one]	846 nM	4.88 nM
CC(=O)NC1CCN(C(=O)c2nn(CC(=O)N3CCN(c4cccc(C)c4C)CC3)c3c2[C@@H]2C[C@@H]2C3)CC1 [Example 229, N-{1-[(3bR,4aR)-1-{2-[4-(2,3-dimethylphenyl)piperazin-1-yl]-2-oxoethyl}-3b,4,4a,5-tetrahydro-1H-cyclopropa[3,4]cyclopenta[1,2-c]pyrazole-3-carbonyl]piperidin-4-yl}acetamide]	224 nM	1.06 nM
Cc1c(Cl)cccc1N1CCN(C(=O)Cn2nc(C(=O)N3CCN(C(=O)CO)CC3)c3c2CCC(F)(F)C3)CC1 [Example 384, 1-(4-(3-chloro-2-methylphenyl)piperazin-1-yl)-2-(5,5-difluoro-3-(4-(2-hydroxyacetyl)piperazine-1-carbonyl)-4,5,6,7-tetrahydro-1H-indazol-1-yl)ethan-1-one]	249 nM	5.32 nM
Cc1cccc(N2CCN(C(=O)Cn3nc(C(=O)N4CCN(C(=O)CO)CC4)c4c3C[C@H]3C[C@@H]43)CC2)c1C [Example 285, 1-[4-(2,3-dimethylphenyl)piperazin-1-yl]-2-{(3bR,4aR)-3-[4-(hydroxyacetyl)piperazine-1-carbonyl]-3b,4,4a,5-tetrahydro-1H-cyclopropa[3,4]cyclopenta[1,2-c]pyrazol-1-yl}ethan-1-one]	58 nM	1.46 nM
Cc1cccc(N2CCN(C(=O)Cn3nc(C(=O)N4CC[C@@H](O)[C@H](C)C4)c4c3C[C@H]3C[C@@H]43)CC2)c1C [Example 284, 1-[4-(2,3-dimethylphenyl)piperazin-1-yl]-2-{(3bR,4aR)-3-[(3R,4R)-4-hydroxy-3-methylpiperidine-1-carbonyl]-3b,4,4a,5-tetrahydro-1H-cyclopropa[3,4]cyclopenta[1,2-c]pyrazol-1-yl}ethan-1-one]	403 nM	1.14 nM
Cc1c(N2CCN(C(=O)Cn3nc(C(=O)N4CC[C@@H](O)[C@@H](F)C4)c4c3C[C@H]3C[C@@H]43)CC2)cccc1C(F)(F)F [Example 339, 2-((3bR,4aR)-3-((3S,4R)-3-fluoro-4-hydroxypiperidine-1-carbonyl)-3b,4,4a,5-tetrahydro-1H-cyclopropa[3,4]cyclopenta[1,2-c]pyrazol-1-yl)-1-(4-(2-methyl-3-(trifluoromethyl)phenyl)piperazin-1-yl)ethanone]	229 nM	1.81 nM
Cc1c(Cl)cccc1N1CCN(C(=O)Cn2nc(C(=O)N3CCC(O)CC3)c3c2CCC(F)C3)CC1 (stereo not shown) [Example 366, 1-(4-(3-chloro-2-methylphenyl)piperazin-1-yl)-2-(5-fluoro-3-(4-hydroxypiperidine-1-carbonyl)-4,5,6,7-tetrahydro-1H-indazol-1-yl)ethan-1-one]	141 nM	2.33 nM
Cc1cccc(N2CCN(C(=O)Cn3nc(C(=O)N4CCC5(CCOC5=O)CC4)c4c3CCC4)CC2)c1C [Example 146, 8-(1-{2-[4-(2,3-dimethylphenyl)piperazin-1-yl]-2-oxoethyl}-1,4,5,6-tetrahydrocyclopenta[c]pyrazole-3-carbonyl)-2-oxa-8-azaspiro[4.5]decan-1-one]	150 nM	2.39 nM
Cc1cccc(N2CCN(C(=O)Cn3nc(C(=O)N4CCC(O)(C(F)F)CC4)c4c3CCC4)CC2)c1C [Example 192, 2-{3-[4-(difluoromethyl)-4-hydroxypiperidine-1-carbonyl]-5,6-dihydrocyclopenta[c]pyrazol-1(4H)-yl}-1-[4-(2,3-dimethylphenyl)piperazin-1-yl]ethan-1-one]	196 nM	1.64 nM
Cc1c(Cl)cccc1N1CCN(C(=O)Cn2nc(C(=O)N3CCC(OCCO)CC3)c3c2CCC(F)C3)CC1 (single isomer, unassigned) [Example 368, 1-(4-(3-chloro-2-methylphenyl)piperazin-1-yl)-2-(5-fluoro-3-(4-(2-hydroxyethoxy)piperidine-1-carbonyl)-4,5,6,7-tetrahydro-1H-indazol-1-yl)ethan-1-one]	55 nM	2.8 nM
Cc1c(Cl)cccc1N1CCN(C(=O)Cn2nc(C(=O)N3CC[C@H](N)[C@@H](F)C3)c3c2C[C@H]2C[C@@H]32)C2(CC2)C1 [Example 315, 2-{(3bR,4aR)-3-[(3S,4S)-4-amino-3-fluoropiperidine-1-carbonyl]-3b,4,4a,5-tetrahydro-1H-cyclopropa[3,4]cyclopenta[1,2-c]pyrazol-1-yl}-1-[7-(3-chloro-2-methylphenyl)-4,7-diazaspiro[2.5]octan-4-yl]ethan-1-one]	272 nM	3.21 nM
Cc1cccc(N2CCN(C(=O)Cn3nc(C(=O)N4CCC(OCCO)CC4)c4c3CCC4)CC2)c1C [Example 120, 1-[4-(2,3-dimethylphenyl)piperazin-1-yl]-2-{3-[4-(2-hydroxyethoxy)piperidine-1-carbonyl]-5,6-dihydrocyclopenta[c]pyrazol-1(4H)-yl}ethan-1-one]	199 nM	2.97 nM

Second part, the compound after the results:

IC50 (IDO1 [1])	IC50 (IDO1 [2])	Compound
77 nM	1.79 nM	Cc1cccc(N2CCN(C(=O)Cn3nc(C(=O)N4CC[C@@H](O)[C@H](C)C4)c4c3CCC4)CC2)c1C [Example 108, 1-[4-(2,3-dimethylphenyl)piperazin-1-yl]-2-{3-[(3R,4R)-4-hydroxy-3-methylpiperidin-1-carbonyl]-5,6-dihydrocyclopenta[c]pyrazol-1(4H)-yl}ethan-1-one]
70 nM	0.59 nM	Cc1cccc(N2CCN(C(=O)Cn3nc(C(=O)N4CC[C@@H](O)[C@H](F)C4)c4c3C[C@H]3C[C@@H]43)CC2)c1C [Example 279, 1-[4-(2,3-dimethylphenyl)piperazin-1-yl]-2-{(3bR,4aR)-3-[(3R,4R)-3-fluoro-4-hydroxypiperidine-1-carbonyl]-3b,4,4a,5-tetrahydro-1H-cyclopropa[3,4]cyclopenta[1,2-c]pyrazol-1-yl}ethan-1-one]
625 nM	10.9 nM	Cc1cccc(N2CCN(C(=O)Cn3nc(C(=O)N4CC[C@H](O)[C@H](F)C4)c4c3CC(C(F)F)C4)CC2)c1C (mixture of isomers) [Example 17, 2-[rac-5-(difluoromethyl)-3-[(3R,4S)-3-fluoro-4-hydroxy-piperidine-1-carbonyl]-5,6-dihydro-4H-cyclopenta[c]pyrazol-1-yl]-1-[4-(2,3-dimethylphenyl)piperazin-1-yl]ethanone]
87 nM	1.47 nM	Cc1c(F)ccc(N2CCN(C(=O)Cn3nc(C(=O)N4CC[C@H](O)[C@H](F)C4)c4c3CCCC4)CC2)c1C [Example 465, 1-(4-(4-fluoro-2,3-dimethylphenyl)piperazin-1-yl)-2-(3-((3R,4S)-3-fluoro-4-hydroxypiperidine-1-carbonyl)-4,5,6,7-tetrahydro-1H-indazol-1-yl)ethanone]
256 nM	10.8 nM	Cc1cccc(N2CCN(C(=O)Cn3nc(C(=O)N4CC[C@H](O)[C@H](F)C4)c4c3CCC4)CC2)c1C [Example 92, 1-[4-(2,3-dimethylphenyl)piperazin-1-yl]-2-{3-[(3R,4S)-3-fluoro-4-hydroxypiperidine-1-carbonyl]-5,6-dihydrocyclopenta[c]pyrazol-1(4H)-yl}ethan-1-one]
209 nM	1.65 nM	Cc1cccc(N2CCN(C(=O)Cn3nc(C(=O)N4CCC(CCO)CC4)c4c3CCC4)CC2)c1C [Example 160, 1-[4-(2,3-dimethylphenyl)piperazin-1-yl]-2-{3-[4-(2-hydroxyethyl)piperidine-1-carbonyl]-5,6-dihydrocyclopenta[c]pyrazol-1(4H)-yl}ethan-1-one]
598 nM	4.85 nM	Cc1c(Cl)cccc1N1CCN(C(=O)Cn2nc(C(=O)N3CC[C@H](O)[C@H](F)C3)c3c2CCC(F)(F)C3)CC1 [Example 381]
306 nM	3 nM	Cc1c(Cl)cccc1N1CCN(C(=O)Cn2nc(C(=O)N3CC[C@@H](O)[C@@H](F)C3)c3c2CCCC3)CC1 [Example 406, 1-(4-(3-chloro-2-methylphenyl)piperazin-1-yl)-2-(3-((3S,4R)-3-fluoro-4-hydroxypiperidine-1-carbonyl)-4,5,6,7-tetrahydro-1H-indazol-1-yl)ethanone]
